Assay results as given in patent publication US10233173B2, “Substituted 1,2,3-triazoles as NR2B-selective NMDA modulators” (JANSSEN PHARMACEUTICA NV, priority 2016, dated 2019).

Target: human GluN1/GluN2B NMDA receptors (Homo sapiens, UniProt Q05586+Q13224)
Experiment: Cell-based calcium flux (FLIPR) assay on cloned human NR1/NR2B ion channels expressed in mammalian cells
Conditions: standard assay; glutamate at ~EC80; FLIPR calcium flux
In short: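 Calcium influx followed by FLIPR fluorescence after 5 min compound exposure and a further 5 min co-agonist challenge: 10 μM glycine with glutamate at ~EC80 (standard) or EC40 (HTS).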

Sequence of human GluN1/GluN2B NMDA receptors (Q13224 27-1484, other chains not shown): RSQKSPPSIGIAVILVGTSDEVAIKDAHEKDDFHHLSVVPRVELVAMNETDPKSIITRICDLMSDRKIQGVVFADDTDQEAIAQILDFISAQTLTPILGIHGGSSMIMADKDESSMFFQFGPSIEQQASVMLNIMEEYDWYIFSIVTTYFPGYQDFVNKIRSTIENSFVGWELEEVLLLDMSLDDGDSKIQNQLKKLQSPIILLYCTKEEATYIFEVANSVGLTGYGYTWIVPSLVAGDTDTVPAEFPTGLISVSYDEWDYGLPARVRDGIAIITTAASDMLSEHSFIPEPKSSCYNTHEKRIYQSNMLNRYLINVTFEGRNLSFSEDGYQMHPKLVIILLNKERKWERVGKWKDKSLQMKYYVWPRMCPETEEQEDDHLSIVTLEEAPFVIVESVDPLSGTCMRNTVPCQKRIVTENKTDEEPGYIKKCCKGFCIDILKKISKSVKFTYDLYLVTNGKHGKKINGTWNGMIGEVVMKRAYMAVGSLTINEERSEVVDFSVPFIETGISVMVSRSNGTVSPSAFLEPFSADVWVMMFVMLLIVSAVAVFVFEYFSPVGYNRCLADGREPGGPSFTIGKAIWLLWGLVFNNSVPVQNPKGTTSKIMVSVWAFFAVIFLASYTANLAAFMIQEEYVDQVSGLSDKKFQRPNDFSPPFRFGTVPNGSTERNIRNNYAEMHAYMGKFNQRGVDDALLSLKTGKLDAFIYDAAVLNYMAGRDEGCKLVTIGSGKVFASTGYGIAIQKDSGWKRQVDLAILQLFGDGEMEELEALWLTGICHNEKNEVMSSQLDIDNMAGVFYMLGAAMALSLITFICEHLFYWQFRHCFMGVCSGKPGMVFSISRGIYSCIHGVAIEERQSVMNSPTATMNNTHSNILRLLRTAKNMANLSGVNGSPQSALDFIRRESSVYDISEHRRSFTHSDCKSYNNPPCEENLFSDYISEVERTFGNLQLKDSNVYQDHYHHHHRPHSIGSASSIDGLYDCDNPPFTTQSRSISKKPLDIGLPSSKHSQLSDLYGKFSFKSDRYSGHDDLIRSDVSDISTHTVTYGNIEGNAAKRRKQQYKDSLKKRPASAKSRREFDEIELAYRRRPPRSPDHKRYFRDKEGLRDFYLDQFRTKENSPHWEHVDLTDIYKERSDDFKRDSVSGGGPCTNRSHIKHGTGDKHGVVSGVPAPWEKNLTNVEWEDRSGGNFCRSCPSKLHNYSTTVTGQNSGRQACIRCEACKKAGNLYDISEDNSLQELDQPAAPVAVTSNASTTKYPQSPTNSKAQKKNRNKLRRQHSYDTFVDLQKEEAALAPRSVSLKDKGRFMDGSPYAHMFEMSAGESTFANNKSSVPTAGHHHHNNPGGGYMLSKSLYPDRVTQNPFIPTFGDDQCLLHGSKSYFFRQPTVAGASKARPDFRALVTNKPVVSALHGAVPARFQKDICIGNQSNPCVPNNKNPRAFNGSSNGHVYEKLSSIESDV

| SMILES | IC50 |
| --- | --- |
| Cc1nc(OCc2cn(-c3ccc(Cl)c(C(C)(F)F)c3)nn2)ncc1F [Example 544, 2-[[1-[4-Chloro-3-(1,1-difluoroethyl)phenyl]triazol-4-yl]methoxy]-5-fluoro-4-methyl-pyrimidine] | 0.015 µM |
| CNCc1ccnc(OCc2cn(-c3ccc(F)c(OC(F)F)c3)nn2)n1 [Example 520, 1-(2-((1-(3-(Difluoromethoxy)-4-fluorophenyl)-1H-1,2,3-triazol-4-yl)methoxy)pyrimidin-4-yl)-N-methylmethanamine] | 0.672 µM |
| CNc1nc(OCc2cn(-c3ccc(F)c(C(F)(F)F)c3)nn2)ncc1F [Example 451, 5-Fluoro-2-[[1-[4-fluoro-3-(trifluoromethyl)phenyl]triazol-4-yl]methoxy]-N-methyl-pyrimidin-4-amine] | 0.298 µM |
| CCc1cnc(OCc2cn(-c3ccnc(C)c3)nn2)nc1 [Example 664, 5-Ethyl-2-[[1-(2-methyl-4-pyridyl)triazol-4-yl]methoxy]pyrimidine] | 0.169 µM |
| Fc1ccc(-n2cc(COc3nccc(-c4ccccc4)n3)nn2)cc1OC(F)F [Example 506, 2-[[1-[3-(Difluoromethoxy)-4-fluoro-phenyl]triazol-4-yl]methoxy]-4-phenyl-pyrimidine] | 9.75 µM |
| Fc1ccc(-n2cc(COc3ncc(N4CC(F)(F)C4)cn3)nn2)cc1C(F)F [Example 419, 5-(3,3-Difluoroazetidin-1-yl)-2-((1-(3-(difluoromethyl)-4-fluorophenyl)-1H-1,2,3-triazol-4-yl)methoxy)pyrimidine] | 0.029 µM |
| CC(F)(F)c1cc(-n2cc(COc3nccc(C(F)F)n3)nn2)ccc1F [Example 563, 2-[[1-[3-(1,1-Difluoroethyl)-4-fluoro-phenyl]triazol-4-yl]methoxy]-4-(difluoromethyl)pyrimidine] | 0.048 µM |
| Cc1cnc(OCc2cn(-c3ccc(Cl)c(C(F)F)c3)nn2)nc1N [Example 632, 2-[[1-[4-chloro-3-(difluoromethyl)phenyl]triazol-4-yl]methoxy]-5-methyl-pyrimidin-4-amine] | 0.004 µM |
| Cc1cc(-n2cc(COc3ncc(C4CC4)cn3)nn2)c(F)cc1F [Example 658, 5-Cyclopropyl-2-[[1-(2,4-difluoro-5-methyl-phenyl)triazol-4-yl]methoxy]pyrimidine] | 0.424 µM |
| Cc1nc(OCc2cn(-c3ccc(F)c(C(F)(F)F)c3)nn2)ncc1N1CCC1 [Example 457, 5-(Azetidin-1-yl)-2-((1-(3-(trifluoromethyl)-4-fluorophenyl)-1H-1,2,3-triazol-4-yl)methoxy)-4-methylpyrimidine] | 0.296 µM |
| CC(F)(F)c1cc(-n2cc(COc3nccc(CO)n3)nn2)ccc1Cl [Example 540, [2-[[1-[4-Chloro-3-(1,1-difluoroethyl)phenyl]triazol-4-yl]methoxy]pyrimidin-4-yl]methanol] | 0.019 µM |
| Cc1nc(OCc2cn(-c3cccc(F)c3C)nn2)ncc1F [Example 465, 5-Fluoro-2-[[1-(3-fluoro-2-methyl-phenyl)triazol-4-yl]methoxy]-4-methyl-pyrimidine] | 3.72 µM |
| Fc1cccc(-n2cc(COc3ncc(Cl)cn3)nn2)c1F [Example 605, 5-Chloro-2-[[1-(2,3-difluorophenyl)triazol-4-yl]methoxy]pyrimidine] | 4.36 µM |
| CNc1nc(OCc2cn(-c3ccc(F)c(C(C)(F)F)c3)nn2)ncc1C [Example 577, 2-[[1-[3-(1,1-Difluoroethyl)-4-fluoro-phenyl]triazol-4-yl]methoxy]-N,5-dimethyl-pyrimidin-4-amine] | 0.128 µM |

Same assay, conditions: standard assay; human GluN1/GluN2B, calcium flux (FLIPR), glutamate ~EC80

| SMILES | IC50 |
| --- | --- |
| FC(F)Oc1cc(-n2cc(COc3cccnn3)nn2)ccc1Cl [Example 14, 3-[[1-[4-Chloro-3-(difluoromethoxy)phenyl]triazol-4-yl]methoxy]pyridazine] | 0.401 µM |
| CC(C)(O)c1cnc(NCc2cn(-c3ccc(F)c(C(F)F)c3)nn2)nc1 [Example 214, 2-[2-[[1-[3-(Difluoromethyl)-4-fluoro-phenyl]triazol-4-yl]methylamino]pyrimidin-5-yl]propan-2-ol] | 0.654 µM |
| CC(O)c1cnc(OCc2cn(-c3ccc(F)c(C(F)F)c3)nn2)nc1 (racemic) [Example 157, (R/S)-1-[2-[[1-[3-(Difluoromethyl)-4-fluoro-phenyl]triazol-4-yl]methoxy]pyrimidin-5-yl]ethanol] | 0.018 µM |
| Cn1ccc(NCc2cn(-c3ccc(F)c(C(F)F)c3)nn2)n1 [Example 100, N-[[1-[3-(Difluoromethyl)-4-fluoro-phenyl]triazol-4-yl]methyl]-1-methyl-pyrazol-3-amine] | 0.894 µM |
| Cc1cnc(OCc2cn(-c3ccc(Cl)c(OC(F)F)c3)nn2)nc1 [Example 22, 2-[[1-[4-Chloro-3-(difluoromethoxy)phenyl]triazol-4-yl]methoxy]-5-methyl-pyrimidine] | 0.002 µM |
| FC1(F)Oc2ccc(-n3cc(COc4ncc(Cl)cn4)nn3)cc2O1 [Example 356, 5-Chloro-2-[[1-(2,2-difluoro-1,3-benzodioxol-5-yl)triazol-4-yl]methoxy]pyrimidine] | 0.185 µM |
| CC(F)(F)c1cc(-n2cc(COc3ncc(N4CCOCC4)cn3)nn2)ccc1F [Example 187, 4-(2-((1-(3-(1,1-Difluoroethyl)-4-fluorophenyl)-1H-1,2,3-triazol-4-yl)methoxy)pyrimidin-5-yl)morpholine] | 0.088 µM |
| CNc1nc(OCc2cn(-c3cccc(C(C)(F)F)c3)nn2)ncc1F [Example 315, 2-[[1-[3-(1,1-Difluoroethyl)phenyl]triazol-4-yl]methoxy]-5-fluoro-N-methyl-pyrimidin-4-amine] | 0.158 µM |
| COc1cnc(OCc2cn(-c3cccc(C(F)F)c3)nn2)nc1 [Example 90, 2-[[1-[3-(Difluoromethyl)phenyl]triazol-4-yl]methoxy]-5-methoxy-pyrimidine] | 0.012 µM |
| Fc1cnc(OCc2cn(-c3ccc(F)c(C(F)(F)F)c3)nn2)nc1 [Example 84, 5-Fuoro-2-[[1-[4-fluoro-3-(trifluoromethyl)phenyl]triazol-4-yl]methoxy]pyrimidine] | 0.072 µM |
| Fc1cnc(OCc2cn(-c3ccc(Cl)c(OC(F)F)c3)nn2)nc1 [Example 95, 2-[[1-[4-Chloro-3-(difluoromethoxy)phenyl]triazol-4-yl]methoxy]-5-fluoro-pyrimidine] | 0.023 µM |
| FC(F)c1cccc(-n2cc(COc3ncc(C4CC4)cn3)nn2)c1 [Example 282, 5-Cyclopropyl-2-[[1-[3-(difluoromethyl)phenyl]triazol-4-yl]methoxy]pyrimidine] | 0.011 µM |
| FC(F)c1ccnc(OCc2cn(-c3ccc4c(c3)CCC4)nn2)n1 [Example 370, 4-(Difluoromethyl)-2-[(1-indan-5-yltriazol-4-yl)methoxy]pyrimidine] | 0.397 µM |
| Cc1nc(OCc2cn(-c3cccc(C(C)(F)F)c3)nn2)ncc1Cl [Example 312, 5-Chloro-2-[[1-[3-(1,1-difluoroethyl)phenyl]triazol-4-yl]methoxy]-4-methyl-pyrimidine] | 0.004 µM |
| COc1cccnc1OCc1cn(-c2ccc(Cl)c(OC(F)F)c2)nn1 [Example 108, 2-[[1-[4-Chloro-3-(difluoromethoxy)phenyl]triazol-4-yl]methoxy]-3-methoxy-pyridine] | 0.114 µM |
| FC(F)c1cnc(OCc2cn(-c3cccc(C(F)F)c3)nn2)nc1 [Example 273, 5-(Difluoromethyl)-2-[[1-[3-(difluoromethyl)phenyl]triazol-4-yl]methoxy]pyrimidine] | 0.027 µM |
| Cc1ccnc(OCc2cn(-c3ccc(F)c(C(C)(F)F)c3)nn2)n1 [Example 79, 2-[[1-[3-(1,1-Difluoroethyl)-4-fluoro-phenyl]triazol-4-yl]methoxy]-4-methyl-pyrimidine] | 0.007 µM |
| COc1cnc(OCc2cn(-c3ccccc3C)nn2)nc1 [Example 238, 5-Methoxy-2-[[1-(o-tolyl)triazol-4-yl]methoxy]pyrimidine] | 5.99 µM |
| Clc1cnc(OCc2cn(-c3ccc4c(c3)CCC4)nn2)nc1 [Example 367, 5-Chloro-2-[(1-indan-5-yltriazol-4-yl)methoxy]pyrimidine] | 0.053 µM |
| COc1cnc(OCc2cn(-c3ccc(F)c(CCCCl)c3)nn2)nc1 [Example 195, 2-[[1-[3-(3-Chloropropyl)-4-fluoro-phenyl]triazol-4-yl]methoxy]-5-methoxy-pyrimidine] | 0.136 µM |
| Cc1cnc(NCc2cn(-c3ccc(F)c(C(C)(F)F)c3)nn2)nc1 [Example 206, N-[[1-[3-(1,1-Difluoroethyl)-4-fluoro-phenyl]triazol-4-yl]methyl]-5-methyl-pyrimidin-2-amine] | 0.219 µM |
| Fc1ccc(-n2cc(COc3nccc(N4CCCC4)n3)nn2)cc1OC(F)F [Example 168, 2-[[1-[3-(Difluoromethoxy)-4-fluoro-phenyl]triazol-4-yl]methoxy]-4-pyrrolidin-1-yl-pyrimidine] | 0.008 µM |
| Cc1ccc(-n2cc(COc3ncc(F)cn3)nn2)cc1 [Example 257, 5-Fluoro-2-[[1-(p-tolyl)triazol-4-yl]methoxy]pyrimidine] | 2.69 µM |
| COc1cc(-n2cc(COc3ncc(C)cn3)nn2)ccc1Cl [Example 88, 2-[[1-(4-Chloro-3-methoxy-phenyl)triazol-4-yl]methoxy]-5-methyl-pyrimidine] | 0.019 µM |
| Fc1ccc(-n2cc(COc3ncc(Cl)cn3)nn2)cc1C(F)F [Example 49, 5-Chloro-2-[[1-[3-(difluoromethyl)-4-fluoro-phenyl]triazol-4-yl]methoxy]pyrimidine] | 0.003 µM |
| Cc1cccc(-n2cc(COc3ncccn3)nn2)c1 [Example 242, 2-[[1-(m-Tolyl)triazol-4-yl]methoxy]pyrimidine] | 0.647 µM |
| CC(C)c1cnc(OCc2cn(-c3cccc(C(F)(F)F)c3)nn2)nc1 [Example 288, 5-Isopropyl-2-[[1-[3-(trifluoromethyl)phenyl]triazol-4-yl]methoxy]pyrimidine] | 0.04 µM |
| Cc1nc(OCc2cn(-c3cccc(C(F)(F)F)c3)nn2)ncc1Cl [Example 291, 5-Chloro-4-methyl-2-[[1-[3-(trifluoromethyl)phenyl]triazol-4-yl]methoxy]pyrimidine] | 0.009 µM |
